The source made the active and inactive calls.
Experiments:
Format in all cases: functional
[1] = target: Dual specificity protein kinase CLK2 (Homo sapiens, UniProt P49760)
[2] = target: Serine/threonine-protein kinase PAK 4 (Homo sapiens, UniProt O96013);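 note: value obtained within a kinome profiling panel in which PAK4 was one of the panel members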
[3] = target: ALK tyrosine kinase receptor (Homo sapiens, UniProt Q9UM73);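 note: ALK tested as one member of a kinase panel screen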
[4] = target: Dual specificity tyrosine-phosphorylation-regulated kinase 1A (Homo sapiens, UniProt Q13627);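 note: measured against DYRK1A as one member of a broad kinome profiling panel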
[5] = target: Macrophage-stimulating protein receptor (Homo sapiens, UniProt Q04912); test: Navigating the Kinome. Panel member name: MST1R
[6] = target: Cyclin-dependent kinase 5 (Homo sapiens, UniProt Q00535);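 note: CDK5 measured as one member of a kinase profiling panel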
[7] = target: Focal adhesion kinase 1 (Homo sapiens, UniProt Q05397);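 note: measured as one member of a kinome panel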
Sequence of Focal adhesion kinase 1 (Q05397 whole entry): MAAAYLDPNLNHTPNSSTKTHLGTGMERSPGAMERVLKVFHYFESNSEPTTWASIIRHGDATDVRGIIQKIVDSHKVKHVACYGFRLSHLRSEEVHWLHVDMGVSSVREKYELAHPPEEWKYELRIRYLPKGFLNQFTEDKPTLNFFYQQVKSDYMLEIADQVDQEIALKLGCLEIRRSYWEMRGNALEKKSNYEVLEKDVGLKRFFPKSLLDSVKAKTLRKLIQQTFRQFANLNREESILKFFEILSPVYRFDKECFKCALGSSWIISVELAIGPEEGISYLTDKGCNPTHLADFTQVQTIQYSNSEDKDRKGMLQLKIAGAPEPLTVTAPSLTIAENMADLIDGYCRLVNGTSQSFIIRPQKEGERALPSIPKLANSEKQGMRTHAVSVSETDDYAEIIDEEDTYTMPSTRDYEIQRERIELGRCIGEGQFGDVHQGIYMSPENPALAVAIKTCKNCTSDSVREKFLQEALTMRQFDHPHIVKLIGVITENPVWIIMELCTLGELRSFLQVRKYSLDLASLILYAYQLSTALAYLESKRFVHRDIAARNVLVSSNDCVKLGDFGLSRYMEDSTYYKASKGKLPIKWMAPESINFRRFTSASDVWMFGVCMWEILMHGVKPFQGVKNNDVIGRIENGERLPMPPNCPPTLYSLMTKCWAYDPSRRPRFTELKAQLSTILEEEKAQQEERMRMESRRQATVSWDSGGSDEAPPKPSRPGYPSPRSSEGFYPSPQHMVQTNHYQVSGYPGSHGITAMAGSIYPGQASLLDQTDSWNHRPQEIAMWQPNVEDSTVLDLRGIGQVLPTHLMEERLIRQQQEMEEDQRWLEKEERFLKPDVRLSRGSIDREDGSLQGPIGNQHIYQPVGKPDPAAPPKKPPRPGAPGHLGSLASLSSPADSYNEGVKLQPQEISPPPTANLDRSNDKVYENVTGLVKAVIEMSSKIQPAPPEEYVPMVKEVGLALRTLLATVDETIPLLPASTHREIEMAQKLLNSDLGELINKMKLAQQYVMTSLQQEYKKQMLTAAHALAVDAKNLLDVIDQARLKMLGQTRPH

[8] = target: Rho-associated protein kinase 1 (Homo sapiens, UniProt Q13464);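 note: measured within a broad kinome-wide panel profiling many kinases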
[9] = target: Serine/threonine-protein kinase pim-1 (Homo sapiens, UniProt P11309)
[10] = target: Inhibitor of nuclear factor kappa-B kinase subunit epsilon (Homo sapiens, UniProt Q14164); test: Navigating the Kinome. Panel member name: IKBKE
[11] = target: Cyclin-dependent kinase 9 (Homo sapiens, UniProt P50750);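 note: value from the CDK9 entry of a kinome-spanning kinase panel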
[12] = target: Receptor-type tyrosine-protein kinase FLT3 (Homo sapiens, UniProt P36888);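 note: FLT3 was tested as one member of a kinome-wide kinase panel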
[13] = target: Macrophage colony-stimulating factor 1 receptor (Homo sapiens, UniProt P07333);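 note: value comes from the Navigating the Kinome screening panel, CSF1R member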
Sequence of Macrophage colony-stimulating factor 1 receptor (P07333 whole entry): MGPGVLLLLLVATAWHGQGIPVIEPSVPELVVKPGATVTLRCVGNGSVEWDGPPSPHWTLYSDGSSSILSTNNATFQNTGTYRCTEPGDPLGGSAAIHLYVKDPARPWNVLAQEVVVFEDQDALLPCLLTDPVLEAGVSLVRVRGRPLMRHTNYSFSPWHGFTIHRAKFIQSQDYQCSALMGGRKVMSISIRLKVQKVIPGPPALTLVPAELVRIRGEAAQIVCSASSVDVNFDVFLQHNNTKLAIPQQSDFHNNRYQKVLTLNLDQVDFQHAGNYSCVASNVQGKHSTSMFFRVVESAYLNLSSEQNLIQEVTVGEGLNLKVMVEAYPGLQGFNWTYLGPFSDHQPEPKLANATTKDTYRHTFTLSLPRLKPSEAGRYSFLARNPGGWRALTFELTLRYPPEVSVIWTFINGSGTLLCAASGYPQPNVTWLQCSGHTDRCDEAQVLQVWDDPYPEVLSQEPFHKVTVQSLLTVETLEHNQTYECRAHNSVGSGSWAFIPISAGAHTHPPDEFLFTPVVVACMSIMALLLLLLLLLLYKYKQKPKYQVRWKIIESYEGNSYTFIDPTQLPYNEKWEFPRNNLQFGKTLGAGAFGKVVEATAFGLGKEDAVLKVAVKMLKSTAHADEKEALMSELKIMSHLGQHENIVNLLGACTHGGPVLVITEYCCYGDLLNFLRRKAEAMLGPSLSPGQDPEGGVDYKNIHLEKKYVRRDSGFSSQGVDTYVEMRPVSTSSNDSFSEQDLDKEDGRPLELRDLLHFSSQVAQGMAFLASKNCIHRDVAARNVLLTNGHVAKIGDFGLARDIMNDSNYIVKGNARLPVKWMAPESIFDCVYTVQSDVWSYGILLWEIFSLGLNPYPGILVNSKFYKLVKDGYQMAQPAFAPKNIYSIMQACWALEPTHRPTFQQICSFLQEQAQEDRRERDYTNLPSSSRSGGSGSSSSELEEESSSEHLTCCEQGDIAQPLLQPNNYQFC

[14] = target: Serine/threonine-protein kinase TBK1 (Homo sapiens, UniProt Q9UHD2); test: Navigating the Kinome. Panel member name: TBK1
[15] = target: Dual specificity mitogen-activated protein kinase kinase 1 (Homo sapiens, UniProt Q02750); test: Navigating the Kinome. Panel member name: MAP2K1
[16] = target: Leucine-rich repeat serine/threonine-protein kinase 2 (Homo sapiens, UniProt Q5S007);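 note: value from a broad kinome-wide panel profiling study in which LRRK2 was one of the kinases tested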
[17] = target: Tyrosine-protein kinase BTK (Homo sapiens, UniProt Q06187)
[18] = target: Tyrosine-protein kinase JAK3 (Homo sapiens, UniProt P52333)
[19] = target: Serine/threonine-protein kinase D3 (Homo sapiens, UniProt O94806);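 note: determined within a kinase panel screen, with PRKCN as the panel member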
[20] = target: Serine/threonine-protein kinase Nek2 (Homo sapiens, UniProt P51955)
[21] = target: Death-associated protein kinase 3 (Homo sapiens, UniProt O43293);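 note: measured as one member of a kinome-wide profiling panel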
[22] = target: Protein kinase C theta type (Homo sapiens, UniProt Q04759); test: Navigating the Kinome. Panel member name: PRKCQ
[23] = target: T1, Aurora kinase A (Homo sapiens, UniProt O14965);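 note: value from the Navigating the Kinome kinase panel profiling, panel entry STK6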
T1 sequence (O14965 whole entry): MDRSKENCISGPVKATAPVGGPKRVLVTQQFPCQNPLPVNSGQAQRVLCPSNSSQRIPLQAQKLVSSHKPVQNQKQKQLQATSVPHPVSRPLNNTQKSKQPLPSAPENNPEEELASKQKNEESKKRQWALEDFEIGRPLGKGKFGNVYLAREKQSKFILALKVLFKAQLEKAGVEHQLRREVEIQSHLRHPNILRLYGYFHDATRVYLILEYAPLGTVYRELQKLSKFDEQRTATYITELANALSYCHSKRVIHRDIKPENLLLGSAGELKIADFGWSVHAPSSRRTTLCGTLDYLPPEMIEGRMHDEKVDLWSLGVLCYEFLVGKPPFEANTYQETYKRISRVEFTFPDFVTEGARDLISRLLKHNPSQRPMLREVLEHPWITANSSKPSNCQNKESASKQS

[24] = target: Ribosomal protein S6 kinase alpha-3 (Homo sapiens, UniProt P51812);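 note: measured within a kinome-wide profiling panel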
[25] = target: Hepatocyte growth factor receptor (Homo sapiens, UniProt P08581);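 note: kinase panel profiling across the kinome, with MET as the panel member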
[26] = target: Platelet-derived growth factor receptor beta (Homo sapiens, UniProt P09619);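 note: value comes from a kinome panel, with PDGFRB tested as one panel member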
[27] = target: Tyrosine-protein kinase JAK2 (Homo sapiens, UniProt O60674);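 note: JAK2 tested as one member of a kinase panel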
Sequence of Tyrosine-protein kinase JAK2 (O60674 whole entry): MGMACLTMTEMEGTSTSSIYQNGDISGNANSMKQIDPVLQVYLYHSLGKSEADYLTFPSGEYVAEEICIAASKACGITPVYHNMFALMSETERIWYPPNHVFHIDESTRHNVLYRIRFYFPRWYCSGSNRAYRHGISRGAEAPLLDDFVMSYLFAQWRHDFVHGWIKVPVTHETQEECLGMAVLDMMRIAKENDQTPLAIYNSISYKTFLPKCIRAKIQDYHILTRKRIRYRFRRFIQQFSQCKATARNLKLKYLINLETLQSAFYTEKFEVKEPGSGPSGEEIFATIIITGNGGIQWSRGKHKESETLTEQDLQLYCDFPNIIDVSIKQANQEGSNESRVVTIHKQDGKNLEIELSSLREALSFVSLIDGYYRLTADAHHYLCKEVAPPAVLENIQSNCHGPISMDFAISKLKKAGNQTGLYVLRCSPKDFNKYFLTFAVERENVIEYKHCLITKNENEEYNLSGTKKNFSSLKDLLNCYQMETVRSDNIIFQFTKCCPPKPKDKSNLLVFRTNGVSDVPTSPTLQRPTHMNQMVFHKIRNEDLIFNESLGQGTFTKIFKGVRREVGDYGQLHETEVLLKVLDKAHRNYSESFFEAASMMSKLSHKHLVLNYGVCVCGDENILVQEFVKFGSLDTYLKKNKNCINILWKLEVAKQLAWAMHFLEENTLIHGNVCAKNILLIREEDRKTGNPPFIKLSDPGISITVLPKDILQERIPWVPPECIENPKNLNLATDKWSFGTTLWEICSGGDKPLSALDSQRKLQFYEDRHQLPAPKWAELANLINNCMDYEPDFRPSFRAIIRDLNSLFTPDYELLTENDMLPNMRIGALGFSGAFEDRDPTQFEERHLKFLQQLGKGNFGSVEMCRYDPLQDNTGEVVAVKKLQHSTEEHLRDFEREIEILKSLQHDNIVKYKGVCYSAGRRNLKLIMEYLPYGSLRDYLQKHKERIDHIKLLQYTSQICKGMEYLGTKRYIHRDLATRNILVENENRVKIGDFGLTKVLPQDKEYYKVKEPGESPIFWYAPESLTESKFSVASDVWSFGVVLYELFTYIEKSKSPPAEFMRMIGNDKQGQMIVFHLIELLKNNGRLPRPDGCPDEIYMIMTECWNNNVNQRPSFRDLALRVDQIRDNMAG

[28] = target: 5'-AMP-activated protein kinase catalytic subunit alpha-1 (Homo sapiens, UniProt Q13131)
[29] = target: Mitogen-activated protein kinase 8 (Homo sapiens, UniProt P45983);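 note: value comes from one member of a kinome-wide kinase profiling panel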
[30] = target: Platelet-derived growth factor receptor alpha (Homo sapiens, UniProt P16234); test: Navigating the Kinome. Panel member name: PDGFRA
Sequence of Platelet-derived growth factor receptor alpha (P16234 whole entry, the tested form may be a part): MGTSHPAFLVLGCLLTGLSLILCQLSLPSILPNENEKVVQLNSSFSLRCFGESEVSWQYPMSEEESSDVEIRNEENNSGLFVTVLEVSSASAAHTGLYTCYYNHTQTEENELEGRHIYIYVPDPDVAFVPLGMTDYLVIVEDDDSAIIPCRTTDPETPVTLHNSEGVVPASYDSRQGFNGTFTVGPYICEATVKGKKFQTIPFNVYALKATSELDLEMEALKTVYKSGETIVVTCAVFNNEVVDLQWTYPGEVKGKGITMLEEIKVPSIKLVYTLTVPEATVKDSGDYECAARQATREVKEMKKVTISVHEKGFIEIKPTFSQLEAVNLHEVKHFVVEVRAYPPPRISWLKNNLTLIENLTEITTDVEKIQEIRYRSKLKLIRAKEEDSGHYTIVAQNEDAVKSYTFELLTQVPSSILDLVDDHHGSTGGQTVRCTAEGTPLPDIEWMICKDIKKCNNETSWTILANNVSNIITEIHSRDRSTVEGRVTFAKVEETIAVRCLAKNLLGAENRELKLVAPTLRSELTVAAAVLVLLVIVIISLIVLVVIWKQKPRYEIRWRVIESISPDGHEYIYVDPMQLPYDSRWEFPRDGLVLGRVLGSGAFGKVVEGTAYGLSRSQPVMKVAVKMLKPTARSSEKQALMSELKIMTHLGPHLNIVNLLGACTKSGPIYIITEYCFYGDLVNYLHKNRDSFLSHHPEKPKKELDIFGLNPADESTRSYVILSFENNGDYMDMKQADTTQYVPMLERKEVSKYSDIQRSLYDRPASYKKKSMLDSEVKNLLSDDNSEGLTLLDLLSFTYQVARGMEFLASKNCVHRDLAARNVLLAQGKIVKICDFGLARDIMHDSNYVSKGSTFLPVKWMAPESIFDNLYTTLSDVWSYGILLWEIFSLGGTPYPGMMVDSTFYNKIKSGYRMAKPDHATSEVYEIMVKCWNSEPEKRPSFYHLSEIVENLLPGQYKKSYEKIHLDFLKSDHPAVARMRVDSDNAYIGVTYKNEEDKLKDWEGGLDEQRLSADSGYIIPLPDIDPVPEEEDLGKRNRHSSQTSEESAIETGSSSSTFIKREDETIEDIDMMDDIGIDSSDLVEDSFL

[31] = target: LIM domain kinase 1 (Homo sapiens, UniProt P53667); test: Navigating the Kinome. Panel member name: LIMK1
[32] = target: Dual specificity tyrosine-phosphorylation-regulated kinase 1B (Homo sapiens, UniProt Q9Y463); test: Navigating the Kinome. Panel member name: DYRK1B
[33] = target: Proto-oncogene tyrosine-protein kinase receptor Ret (Homo sapiens, UniProt P07949);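 note: measured within a kinome-wide profiling panel, RET as the panel member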
[34] = target: Glycogen synthase kinase-3 alpha (Homo sapiens, UniProt P49840);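 note: GSK3A result taken from a broad kinome-wide kinase panel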
[35] = target: Tyrosine-protein kinase ABL1 (Homo sapiens, UniProt P00519)
[36] = target: Calcium/calmodulin-dependent protein kinase type II subunit alpha (Homo sapiens, UniProt Q9UQM7); test: Navigating the Kinome. Panel member name: CAMK2A
[37] = target: Leukocyte tyrosine kinase receptor (Homo sapiens, UniProt P29376); test: Navigating the Kinome. Panel member name: LTK
Sequence of Leukocyte tyrosine kinase receptor (P29376 whole entry): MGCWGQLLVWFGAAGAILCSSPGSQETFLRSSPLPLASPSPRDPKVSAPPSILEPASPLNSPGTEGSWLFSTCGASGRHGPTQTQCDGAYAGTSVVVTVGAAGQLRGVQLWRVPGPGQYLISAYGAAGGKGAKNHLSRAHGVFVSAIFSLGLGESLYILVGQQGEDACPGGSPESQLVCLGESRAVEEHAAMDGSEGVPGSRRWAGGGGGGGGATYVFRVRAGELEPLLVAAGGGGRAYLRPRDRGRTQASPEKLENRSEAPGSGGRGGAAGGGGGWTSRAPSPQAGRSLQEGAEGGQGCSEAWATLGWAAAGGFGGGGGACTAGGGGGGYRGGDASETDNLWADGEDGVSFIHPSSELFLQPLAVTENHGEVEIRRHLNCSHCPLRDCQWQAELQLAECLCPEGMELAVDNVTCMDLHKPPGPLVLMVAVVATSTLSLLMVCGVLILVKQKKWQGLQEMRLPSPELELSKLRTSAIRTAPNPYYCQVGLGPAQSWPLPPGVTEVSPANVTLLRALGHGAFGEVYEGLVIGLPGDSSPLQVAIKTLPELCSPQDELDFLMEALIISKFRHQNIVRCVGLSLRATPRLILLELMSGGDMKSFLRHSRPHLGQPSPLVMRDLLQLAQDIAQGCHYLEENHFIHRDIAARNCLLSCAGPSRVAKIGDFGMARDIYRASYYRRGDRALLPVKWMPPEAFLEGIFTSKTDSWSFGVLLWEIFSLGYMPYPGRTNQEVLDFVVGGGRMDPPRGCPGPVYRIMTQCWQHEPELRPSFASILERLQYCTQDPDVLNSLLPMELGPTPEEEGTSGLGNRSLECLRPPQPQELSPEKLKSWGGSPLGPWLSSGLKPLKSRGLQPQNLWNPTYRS

Ki [1] | Ki [2] | Ki [3] | Ki [4] | Ki [5] | Ki [6] | Ki [7] | Ki [8] | Ki [9] | Ki [10] | Ki [11] | Ki [12] | Ki [13] | Ki [14] | Ki [15] | Ki [16] | Ki [17] | Ki [18] | Ki [19] | Ki [20] | Compound | further results
15.8 µM (active) | 50.1 µM (active) | 79.4 µM (active) | 1.58 µM (active) | 31.6 µM (active) | 3.16 µM (active) | 31.6 µM (active) | 15.8 µM (active) | 15.8 µM (active) | 7.94 µM (active) | 5.01 µM (active) | 79.4 µM (active) | 39.8 µM (active) | 31.6 µM (active) | 25.1 µM (active) | 3.98 µM (active) | 31.6 µM (active) | 25.1 µM (active) | 3.16 µM (active) | 6.31 µM (active) | O=c1[nH][nH]c2ccc(Br)cc12 | Ki [21]: 7.94 µM (active); Ki [22]: 31.6 µM (active); Ki [23]: 7.94 µM (active); Ki [24]: 31.6 µM (active); Ki [25]: 12.6 µM (active); Ki [26]: 63.1 µM (active); Ki [27]: 25.1 µM (active); Ki [28]: 12.6 µM (active); Ki [29]: 25.1 µM (active); Ki [30]: 15.8 µM (active); Ki [31]: 3.16 µM (active); Ki [32]: 3.16 µM (active); Ki [33]: 25.1 µM (active); Ki [34]: 39.8 µM (active); Ki [35]: 39.8 µM (active); Ki [36]: 31.6 µM (active); Ki [37]: 5.01 µM (active)
0.0316 µM (active) | > 5.01 µM (inactive) | 0.00126 µM (active) | > 1.58 µM (inactive) | > 3.98 µM (inactive) | > 3.16 µM (inactive) | 0.0398 µM (active) | 2 µM (active) | 3.98 µM (active) | > 3.16 µM (inactive) | > 1.58 µM (inactive) | > 2.51 µM (inactive) | > 2.51 µM (inactive) | > 3.16 µM (inactive) | > 3.16 µM (inactive) | 0.00794 µM (active) | > 6.31 µM (inactive) | > 5.01 µM (inactive) | 0.398 µM (active) | > 3.16 µM (inactive) | COc1cc2c(cc1Nc1nc(Nc3cccc(F)c3C(N)=O)c3cc[nH]c3n1)N(C(=O)CN(C)C)CC2 | Ki [21]: 0.1 µM (active); Ki [22]: > 2.51 µM (inactive); Ki [23]: > 1.58 µM (inactive); Ki [24]: 0.631 µM (active); Ki [25]: > 2.51 µM (inactive); Ki [26]: > 2 µM (inactive); Ki [27]: > 2.51 µM (inactive); Ki [28]: > 3.16 µM (inactive); Ki [29]: 0.158 µM (active); Ki [30]: > 2.51 µM (inactive); Ki [31]: > 3.16 µM (inactive); Ki [32]: 1.26 µM (active); Ki [33]: > 3.16 µM (inactive); Ki [34]: > 3.98 µM (inactive); Ki [35]: > 2.51 µM (inactive); Ki [36]: > 3.98 µM (inactive); Ki [37]: 0.00158 µM (active)

From ChEMBL document CHEMBL1201862, “PubChem BioAssay data set” (2004)
